This passage reports IC50 results from patent US20110038835A1, “ANILIDES AND ANALOGS AS RHO KINASE INHIBITORS” (The Scripps Research Institute, priority 2007, published 2011).

One test concerns the target ROCK-II (1-543) (UniProt Q62868). Briefly: Enzymatic Rho kinase assay (Kinase-Glo, S6-peptide phosphorylation). The settings on record: 20 μM ATP, 20 μM S6-peptide, 50 min at RT. It counts as biochemical. As to the method: Enzymatic Rho Kinase (ROCK I and ROCK II) Assays.
The assay is based on ability of Rhok2 to phosphorylate a specific peptide sequence derived from its substrate—ribosomal protein S6 (amino acid residues 229-239). Rhok2 uses ATP as a donor of phosphate for the phosphorylation of the substrate, which leads to the depletion of ATP in the reaction mix. An assay kit (“Kinase-Glo”, Promega) was used to quantify enzyme activity. Using this kit, residual amounts of ATP are measured by a secondary enzymatic reaction, through which luciferase utilizes the remaining ATP to produce luminescence. Luminescent signal is directly proportional to ATP concentration and inversely proportional to Rhok2 activity.
This dose response assay was conducted in 1536 well plate format. Each concentration was tested nominally in triplicate. Protocol Summary: A 5 μL mixture of a 20 μM S6-peptide (LCB-[…]-NH2) and 20 μM ATP in Kinase buffer (50 mM Hepes pH 7.3, 10 mM MgCl2, 0.1% BSA, and 2 mM DTT) was added to the well of a plate. 20 nL of 90% DMSO/10% water containing the compound(s) to be tested (or no compound for control wells) was added. The reaction was initiated by addition of 5 μL of 8 nM ROCK-II (1-543) in Kinase buffer. […] The plate was read after 10 min incubation time at RT on the Viewlux in luminescence mode.

In the next test the test system is A7r5 cells. Briefly: Myosin light chain double phosphorylation assay (ppMLC cell assay). It counts as cell-based. Conditions: inhibitor 1 h, 10 μM LPA for 10 min. As to the method: Myosin Light Chain Double Phosphorylation Assays (ppMLC Cell Assay).
A7r5 cells were plated at 5000 cells/well in a 96 well Packard View Plate (Perkin Elmer) in DMEM +10% FBS. After attachment overnight, cells were serum starved for 4 h and treated with inhibitor in 0.25% DMSO final concentration for 1 h at 37° C. Cells were then treated with 10 μM lysophosphatitic acid (LPA) for 10 min. Following treatment, cells were immediately fixed with 4% paraformaldehyde for 30 minutes. After a brief wash in 0.1 M glycine, cells were permeablized in 0.2% Triton X for 10 minutes. Cells were then washed once in PBS and blocked in Li-COR blocking buffer (Li-COR Biosciences) for 1 h at 25 C. Cells were probed for either phosphorylated myosin light chain 20 (55 ng/mL), total myosin light chain (525 ng/mL) or anti-bovine α-tubulin (1 μg/mL), and incubated overnight at 4° C. Following three washes, cells were probed with goat-anti-rabbit or goat-anti-mouse IR800 (2 μg/mL in LI-COR block +0.025% Tween) for 1 h at 25° C. Nuclei were stained with TO-PRO-3 iodide (642/661) (1:4000) for 20 min, washed twice in PBS/0.05% Tween and read with an Odyssey Infrared Imaging System (LI-COR Biosciences).

For another test, the system named is N2a cells. Briefly: Neurite length assay (N2a cell assay). The settings on record: Mus musculus, compound 1 h, neurite retraction induced by 5 uM LPA. Type of test: cell-based. As to the method:
Neurite Length Assay (N2a, Cell Assay).
N2a cells are maintained in DMEM/FBS at 37 C and 5% CO2. For the experiment the cells were plated on a poly-D-lysine coated 96-well tissue culture plate. After attachment, cell differentiation was induced for 2 days by addition of 10 uM retinoic acid. Cells were treated for 1 h with a dilution of compounds in 0.3% DMSO final concentration before neurite retraction was induced by 5 uM LPA. Cells were stained for tubulin and nuclei and images were acquired on a INCell 1000 workstation. Images were analyzed using the developer toolbox and neurite length was quantitated.

For orientation: IC50 means the concentration needed to halve the response being measured. Low readings indicate higher potency, high ones lower potency.

Regarding `CN(C)CCOc1cc(-c2cn[nH]c2)c(F)cc1NC(=O)[C@H](N)c1ccc(F)cc1` [Example 26, (R)-2-amino-N-(2-(2-(dimethylamino)ethoxy)-5-fluoro-4-(1H-pyrazol-4-yl)phenyl)-2-(4-fluorophenyl)acetamide], the IC50 was 19 nM on ROCK-II (1-543), 110 nM with A7r5 cells and 18 nM in the test on N2a cells.
